Source: paper PMC4912633, “Direct evidence of the molecular basis for biological silicon transport” (Nature Communications, 2016)

B1: PtSIT1 (Phaeodactylum tricornutum) (protein)
chain: MVDAGNVIKCAYSVGLLVFSTIIIMGLIFNEETKLSSDVNSAVAFVAIWGGVLWLTMVEGGQGSLVGLAPVNRELYKDSHPIAYKCTAIAHKGDNLDRYLLGRQFMVVLTVFVVNMSGGPLKDAELWGFPYVLTNMFLGSGLAMILFTAMVGQLNSQVNASLCMLDYINNYFALFTLWVAMAIEFSGLLHASYLVQMLVAALSGKKIESNEEPRNGLQNLFFWSRCLGSLAILGYCFAVTLAALFAGKTTMWEGVPPSVAVIVFFVLMSVVGLLEGMQIAFFAVAKIPKAERGDSVFAKKTCDLLFKGDGNNLPGFMIGRQLCVVSCMFFIARVTSVEIAEGEENIFGVSDGFQKLFDTGLLGAIITTIVASISWQLVASAFPIAFLSNPFTYIFLRICLVLEAIGICSGAWVLAAIHKKVAGFQRDEVYIGTAEERAAKDMSDDSDQLHLGPGHLVKLPGFAEHAPTALKDLMMADPSVADYLKSIHEMESGKANGEGSETRRTGSSEADE

Experiments:
PtSIT1 [1] = biological target: T1, PtSIT1 (Phaeodactylum tricornutum, UniProt B7T1F4, Q104A); assay: biochemical
T1 construct: gene SIT1
T1 sequence (B7T1F4 1-512 Q104A): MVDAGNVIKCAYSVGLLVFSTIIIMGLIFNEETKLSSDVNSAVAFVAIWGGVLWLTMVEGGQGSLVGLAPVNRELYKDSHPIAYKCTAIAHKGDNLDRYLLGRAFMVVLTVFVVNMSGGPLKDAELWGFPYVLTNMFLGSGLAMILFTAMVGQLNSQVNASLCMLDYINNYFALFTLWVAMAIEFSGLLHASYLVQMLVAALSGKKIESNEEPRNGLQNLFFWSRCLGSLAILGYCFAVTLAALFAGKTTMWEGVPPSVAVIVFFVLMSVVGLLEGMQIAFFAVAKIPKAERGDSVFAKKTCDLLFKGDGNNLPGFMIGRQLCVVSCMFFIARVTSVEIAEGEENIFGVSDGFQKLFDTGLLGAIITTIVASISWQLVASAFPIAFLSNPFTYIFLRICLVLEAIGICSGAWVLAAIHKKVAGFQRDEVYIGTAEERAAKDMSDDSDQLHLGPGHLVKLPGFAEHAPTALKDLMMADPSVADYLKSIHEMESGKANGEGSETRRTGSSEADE

PtSIT1 [2] = biological target: T2, PtSIT1 (Phaeodactylum tricornutum, UniProt B7T1F4, Q321A); assay: biochemical
T2 construct: gene SIT1
T2 sequence (B7T1F4 1-512 Q321A): as the sequence (B7T1F4 1-512 Q104A) above, with A104Q, Q321A counted along it

PtSIT1 [3] = biological target: T3, PtSIT1 (Phaeodactylum tricornutum, UniProt B7T1F4); assay: biochemical
T3 construct: gene SIT1

purified protein = substrate: O[Si](O)(O)O; assay: purified protein; conditions: inward Na+ gradient (150 mM NaCl outside), valinomycin, 50 mM Tris, 150 mM KCl inside, pH 7.4, error s.e.m. of fit

Molecule | Kd (PtSIT1 [1]) [µM] | Kd (PtSIT1 [2]) [µM] | Kd (PtSIT1 [3]) [µM] | Km (purified protein) [µM]
O[Si](O)(O)O [silicic acid] | 25.5 ± 11 | 13.3 ± 8 | 2.9 ± 2.3 | –
B1 | – | – | – | 19.1 ± 4.5
